Measurements from US6046228A, “Anti-viral pharmaceutical compositions containing saturated 1,2-dithiaheterocyclic compounds and uses thereof” (priority 1999, dated 2000).
Read-outs that look alike come from different tables or passages of the source.

What was measured:
Format in all cases: cell-based
CEM-SS cells = experiment: XTT assay, cytotoxicity (IC50), CEM-SS cells
Method: (§1) Initial anti-HIV screening was performed with CEM-SS cells and HIV-1RFusing the XTT cytoprotection assay as previously described (Weislow et al., J. National Cancer Inst. 81: 577-586, (1989)). HIV-1 isolates included common laboratory stains (RF, IIIB and MN), as well as a panel of HIV-1 clinical isolates (Cushman et al., J. Med. Chem. 37: 3040-3050, (1994)). The pyridone-resistant HIV-1A17 isolate (Nunberg et al., J. Virol., 65: 4887-4892 (1991)) was obtained from Emilio Emini at Merck Sharpe and Dohme Laboratories. Phytohemagglutinin-stimulated human peripheral blood lymphocytes (PBLs) and fresh monocyte-macrophage (Mono/MF) cultures were prepared and utilized in antiviral assays as previously described (Rice et al., Proc. Nat'l. Academy Science, USA 90: 9721-9724, (1993)); (Cushman et al., J. Med. Chem. 37: 3040-3050, (1994)). EC50 values for these cultures indicate the drug concentration that provided a 50% reduction in viral p24 production. […] The compounds can be synthesized according to the teachings of Singh et al., Sulfur Letters 8: 107-114, (1988). […] MT-2, MT-4, U1, HeLa-CD4-LTR-β-gal and 174xCEM cells were obtained from the AIDS Research and Reference Program (National Institute of Allergy and Infectious Disease, National Institutes of Health, Bethesda, Md. USA), as were the HIV-2MS and the AZT-resistant HIV-1G910-6 isolates.
(§2) Racemate and enantiomers of the cis-1,1-dioxo[1,2]dithiane-4,5-diol were synthesized and evaluated for antiviral activity in the XTT assay as described hereinabove.

HIV-1RF = experiment: XTT cytoprotection (cytopathicity) anti-HIV assay, CEM-SS cells
Method: as §1, §2

HIV-1NL4-3 4XAZT = experiment: XTT cytopathicity assay, NL4-3 site-directed RT mutant; settings: MT-2, NL4-3 4XAZT
Method: (§3) Initial anti-HIV screening was performed with CEM-SS cells and HIV-1RFusing the XTT cytoprotection assay as previously described (Weislow et al., J. National Cancer Inst. 81: 577-586, (1989)). HIV-1 isolates included common laboratory stains (RF, IIIB and MN), as well as a panel of HIV-1 clinical isolates (Cushman et al., J. Med. Chem. 37: 3040-3050, (1994)). The pyridone-resistant HIV-1A17 isolate (Nunberg et al., J. Virol., 65: 4887-4892 (1991)) was obtained from Emilio Emini at Merck Sharpe and Dohme Laboratories. Phytohemagglutinin-stimulated human peripheral blood lymphocytes (PBLs) and fresh monocyte-macrophage (Mono/MF) cultures were prepared and utilized in antiviral assays as previously described (Rice et al., Proc. Nat'l. Academy Science, USA 90: 9721-9724, (1993)); (Cushman et al., J. Med. Chem. 37: 3040-3050, (1994)). EC50 values for these cultures indicate the drug concentration that provided a 50% reduction in viral p24 production. […] The compounds can be synthesized according to the teachings of Singh et al., Sulfur Letters 8: 107-114, (1988). The 4,5-cis-dihydroxy(1,1-dioxy-1,2,-dithiohexane) compound (NSC 624151) has been abbreviated as 624151 for convenience. MT-2, MT-4, U1, HeLa-CD4-LTR-β-gal and 174xCEM cells were obtained from the AIDS Research and Reference Program (National Institute of Allergy and Infectious Disease, National Institutes of Health, Bethesda, Md. USA), as were the HIV-2MS and the AZT-resistant HIV-1G910-6 isolates.
(§4) ^a Anti-HIV studies utilizing lymphocytederived cell lines were
(§5) performed using the XTT cytopathicity assay, while antiviral assays

HIV-1NL4-3 K103N = experiment: as above; settings: MT-2, NL4-3 K103N
Method: as §3, §4, §5

HIV-1NL4-3 V179D = experiment: as above; settings: MT-2, NL4-3 V179D
Method: as §3, §4, §5

HIV-1NL4-3 V1081 = experiment: as above; settings: MT-2, NL4-3 V1081
Method: as §3, §4, §5

HIV-1NL4-3 L74V = experiment: as above; settings: MT-2, NL4-3 L74V
Method: as §3, §4, §5

HIV-1NL4-3 Y181C = experiment: as above; settings: MT-2, NL4-3 Y181C
Method: as §3, §4, §5

HIV-1IIIB = experiment: combination antiviral XTT assay, CEM-SS cells, method of Prichard and Shipman; settings: for synergy volume: 95% confidence level
Method: Analysis of drug combinations was performed utilizing the XTT assay described above, with statistical evaluations performed according to the method of Prichard and Shipman (Antiviral Res. 14: 181-206, (1990)). Combination antiviral XTT assays were performed with CEM-SS cells utilizing HIV-1IIIB as previously described (Buckheit et al., Antimicrobial Agents and Chemotherapy 39: 2718-2727, (1995)). The standard anti-HIV assay was altered for combination analysis by increasing the multiplicity of infection 3-fold, allowing greater statistical consistency in these assays.
The synergy volumes for the combinatorial anti-HIV activities calculated at the 95% confidence level were 37, 80, 44, 55 and 16 μM^2, respectively, for each combination. Synergy volumes that range from […] represent additivity and volumes>50% represent synergistic responses. […] Thus, it is anticipated that the present dithiane dioxide compounds can be used in pharmaceutical compositions further including other antiviral agents.

HIV-1 WEJO(SI) = experiment: antiviral assay in PBL (p24), clinical isolate WEJO; settings: Human immunodeficiency virus 1, cell-free p24
Method: as §3, with “MT-2, MT-4, U1, HeLa-CD4-LTR-β-gal and 174xCEM cells were obtained from the AIDS Research and Reference Program (National Institute of Allergy and Infectious Disease, National Institutes of Health, Bethesda, Md. USA), as were the HIV-2MS and the AZT-resistant HIV-1G910-6 isolates.” left out

HIV-1, HIV-2 and SIV = experiment: range of antiviral action studies; settings: in words
Method: as §3, with “MT-2, MT-4, U1, HeLa-CD4-LTR-β-gal and 174xCEM cells were obtained from the AIDS Research and Reference Program (National Institute of Allergy and Infectious Disease, National Institutes of Health, Bethesda, Md. USA), as were the HIV-2MS and the AZT-resistant HIV-1G910-6 isolates.” left out

O=S1(=O)C[C@H](O)[C@H](O)CS1 (relative stereo) [NSC 624151, cis-1,1-dioxo[1,2]dithiane-4,5-diol] showed an IC50 (CEM-SS cells; Homo sapiens, CEM-SS, Table 5, cytotoxicity, read-out: IC50 Duplicates) of 116 µM, an IC50 (CEM-SS cells; Homo sapiens, CEM-SS, Table 5, cytotoxicity, read-out: IC50 Mean) of 122 µM and an IC50 (CEM-SS cells; Homo sapiens, CEM-SS, cytotoxicity, CEM-SS cells, read-out: XTT Assay IC50) of 184 µM. For the same compound, the IC50 (CEM-SS cells; Table 5, cytotoxicity, read-out: IC50 Duplicates) was 127 µM, the EC50 (HIV-1RF; Human immunodeficiency virus 1, CEM-SS, CEM-SS cells, HIV-1RF, read-out: XTT Assay EC50) was 6.6 µM and the EC50 (HIV-1RF; Human immunodeficiency virus 1, CEM-SS, CEM-SS, RF, Table 2, read-out: EC50) was 6.6 µM. For the same compound, the EC50 (HIV-1RF; Human immunodeficiency virus 1, CEM-SS, Table 5, read-out: EC50 Duplicates) was 9.53 µM, the EC50 (HIV-1RF; Human immunodeficiency virus 1, CEM-SS, Table 5, read-out: EC50 Mean) was 12.2 µM and the EC50 (HIV-1RF; Human immunodeficiency virus 1, CEM-SS, XTT cytopathicity assay, Table 4, read-out: Infection EC50 (Mean ± S.D., n = 6)) was 7.85 ± 5.5 µM. For the same compound, the EC50 (HIV-1RF; Table 5, read-out: EC50 Duplicates) was 14.9 µM, the “EC50 relative to enantiomer or racemate” value (HIV-1RF; in words) was “the average of these EC50 s is equivalent to the EC50 for the racemic mixture” and the EC50 (HIV-1NL4-3 4XAZT) was 10.7 µM. For the same compound, the EC50 (HIV-1NL4-3 K103N) was 17.3 µM, the EC50 (HIV-1NL4-3 V179D) was 20.2 µM and the EC50 (HIV-1NL4-3 V1081) was 20 µM. For the same compound, the EC50 (HIV-1NL4-3 L74V) was 19.8 µM, the EC50 (HIV-1NL4-3 Y181C) was 20.9 µM and the “combination response with other antiviral agents” value (HIV-1IIIB; AZT, ddC, 3TC, Costatolide or KNI-272, in words) was “additive to slightly synergistic response in combination with other antiviral agents, but was not antagonistic with any agents tested”. For the same compound, the synergy volume (HIV-1IIIB; in combination with 3TC) was 44 μM^2, the synergy volume (HIV-1IIIB; in combination with AZT) was 37 μM^2 and the synergy volume (HIV-1IIIB; in combination with Costatolide) was 55 μM^2. The synergy volume (HIV-1IIIB; in combination with KNI-272 protease inhibitor) was 16 μM^2, the synergy volume (HIV-1IIIB; in combination with ddC) was 80 μM^2 and the EC50 (HIV-1 WEJO(SI)) was 7.59 µM. The “inhibition of replication of laboratory and drug-resistant HIV-1 strains” value (HIV-1, HIV-2 and SIV; RF, IIIB, SK1, MN, AZT-, nevirapine-, pyridinone-, NNRTI-resistant strains) was “effectively inhibited replication” and the “activity against RT mutants, clinical strains, clades, HIV-2 and SIV” value (HIV-1, HIV-2 and SIV) was “active against”.
